The target of one assay is T1, Glucocorticoid receptor (Rattus norvegicus, UniProt P06536).
T1 sequence (P06536 whole entry): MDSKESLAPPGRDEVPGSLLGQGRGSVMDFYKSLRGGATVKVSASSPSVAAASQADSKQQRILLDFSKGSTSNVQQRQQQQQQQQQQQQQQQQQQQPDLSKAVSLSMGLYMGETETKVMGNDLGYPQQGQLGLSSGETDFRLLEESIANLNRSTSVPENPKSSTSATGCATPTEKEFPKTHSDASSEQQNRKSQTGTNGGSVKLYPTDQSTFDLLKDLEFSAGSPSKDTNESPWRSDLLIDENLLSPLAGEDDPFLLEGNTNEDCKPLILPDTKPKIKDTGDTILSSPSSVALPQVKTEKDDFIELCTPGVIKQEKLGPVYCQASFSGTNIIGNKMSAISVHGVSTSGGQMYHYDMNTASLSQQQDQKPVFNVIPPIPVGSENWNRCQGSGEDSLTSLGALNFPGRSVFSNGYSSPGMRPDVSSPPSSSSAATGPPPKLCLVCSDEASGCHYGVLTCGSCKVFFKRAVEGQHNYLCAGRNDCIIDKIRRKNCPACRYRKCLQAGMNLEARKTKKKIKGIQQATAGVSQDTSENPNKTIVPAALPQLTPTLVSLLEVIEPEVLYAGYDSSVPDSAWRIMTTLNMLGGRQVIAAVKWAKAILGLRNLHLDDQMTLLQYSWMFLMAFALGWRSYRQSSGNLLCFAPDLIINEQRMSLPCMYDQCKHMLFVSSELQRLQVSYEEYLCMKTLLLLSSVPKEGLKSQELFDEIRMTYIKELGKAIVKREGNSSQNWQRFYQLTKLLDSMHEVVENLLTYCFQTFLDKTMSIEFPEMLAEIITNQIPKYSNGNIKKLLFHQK
Nature of the assay: Binding affinity to rat glucocorticoid receptor.

The target of another assay is Progesterone receptor (Rattus norvegicus, UniProt Q63449). Nature of the assay: Binding affinity to progesterone receptor.
Chain of Progesterone receptor (Q63449 whole entry): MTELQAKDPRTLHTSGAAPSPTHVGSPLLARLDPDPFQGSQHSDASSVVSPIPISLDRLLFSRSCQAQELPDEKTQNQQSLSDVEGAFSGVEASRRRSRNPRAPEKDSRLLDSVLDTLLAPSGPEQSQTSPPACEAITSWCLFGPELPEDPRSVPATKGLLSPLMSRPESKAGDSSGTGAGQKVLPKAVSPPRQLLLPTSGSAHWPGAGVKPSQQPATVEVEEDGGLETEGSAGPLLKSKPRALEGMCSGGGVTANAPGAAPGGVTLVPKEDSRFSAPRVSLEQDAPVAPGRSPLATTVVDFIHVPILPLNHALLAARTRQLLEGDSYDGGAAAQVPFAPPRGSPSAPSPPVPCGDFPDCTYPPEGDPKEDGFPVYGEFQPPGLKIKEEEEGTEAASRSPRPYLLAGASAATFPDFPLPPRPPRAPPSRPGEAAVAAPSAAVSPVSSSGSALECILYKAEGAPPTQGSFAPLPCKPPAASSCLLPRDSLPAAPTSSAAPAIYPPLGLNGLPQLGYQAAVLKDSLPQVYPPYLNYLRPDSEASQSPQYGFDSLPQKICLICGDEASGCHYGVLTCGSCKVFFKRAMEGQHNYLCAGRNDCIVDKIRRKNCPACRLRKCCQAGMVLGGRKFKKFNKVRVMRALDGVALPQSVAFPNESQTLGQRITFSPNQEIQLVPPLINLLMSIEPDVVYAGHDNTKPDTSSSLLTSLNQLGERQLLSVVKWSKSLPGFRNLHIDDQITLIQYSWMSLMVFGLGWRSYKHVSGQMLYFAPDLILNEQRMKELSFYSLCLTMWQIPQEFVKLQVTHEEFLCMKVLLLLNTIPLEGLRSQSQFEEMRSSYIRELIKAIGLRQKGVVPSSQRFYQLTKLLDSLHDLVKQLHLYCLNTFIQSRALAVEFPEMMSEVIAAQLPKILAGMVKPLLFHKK

Usually EC50 stands for the midpoint of the concentration-response curve. High values mean lower potency in that assay, low ones higher potency in that assay.

In the case of `C=CCC1Oc2cccc(OC)c2-c2ccc3c(c21)C(C)=CC(C)(C)N3` (configuration not stated) [AL-43], the half-maximal effective concentration (EC50) was 7.94 nM on Glucocorticoid receptor and 126 nM on Progesterone receptor.

The values above are taken from ChEMBL document CHEMBL1139978, “Synthesis and radiopharmacological characterization of [11C]AL-438 as a nonsteroidal ligand for imaging brain glucocorticoid receptors” (Bioorg Med Chem Lett, 2007).
